In brackets after ≈: the same amount, converted by molar mass.
Columns and labels:
[1] = Acute toxicity (LD50) in mice, intravenous (Experimental Example 2); conditions: mouse, in vivo; ICR male mice, intravenous (tail), two weeks observation; estimated; read-out: 50% lethal dose (LD50)
Description: Each of the compounds was administered intravenously to the tail of each mouse in a customary manner in a dose of 500 mg/kg and 1000 mg/kg, and over two weeks from then, the states of the mice were observed. It was consequently estimated that the LD50 values of each of these compounds was at least 1000 mg/kg.

Escherichia coli (NIHJ) = experiment: MIC, agar plate dilution (Referential Example 1, Table 1); assay type: cell-based; conditions: 18 h, read-out: Minimum growth inhibitory concentration (MIC)
Description: (§1) The antibacterial activities of the cephalosporins of this invention were measured using the sodium salts of the compounds obtained in Synthesis Examples 1 and 2. The procedure and the results are shown in Referential Example 1.
(§2) Carbenicillin sodium salt (CB-PC) and cephazoline sodum salt (CEZ) were used as controls.
(§3) The antibacterial activities of the test compounds against various Gram-positive and Gram-negative bacteria were determined in a customary manner by the minimum growth inhibitory concentration method (MIC method).
(§4) The experimental procedure was as follows:
(§5) A commercially available heart infusion agar medium (to be abbreviated HIA medium) was used as an assay medium, and a commercially available trypto-soy bouillon medium (to be abbreviated TSB) was used as a medium for the growth of test bacterial strains.
(§6) The test compound was diluted with the melted HIA medium to 100 μg/ml as a maximum concentration, and then serially diluted double. The dilutions were poured into sterilized Petri dishes respectively and allowed to cool and solidify to prepare plates containing the test compound.
(§7) The test bacterial strain was cultivated at 37° C. for 18 to 24 hours in the TSB medium. The culture broth was diluted to 50 to 500 times with a freshly prepared TSB culture medium, and one platinum loopful of the dilution was inoculated in each of the plates containing the test compound.

[2] = tested on: Serratia marcescens (S-33); experiment: as above; assay type: cell-based; conditions: HIA medium plate, 37° C., 18 hours, read-out: Minimum growth inhibitory concentration (MIC)
Description: as §1, §2, §3, §4, §5, §6, §7

[3] = tested on: Bacillus cereus (IAM 1792); experiment: as above; assay type: cell-based; conditions: IAM1792, HIA medium plate, 37° C., 18 hours, read-out: Minimum growth inhibitory concentration (MIC)
Description: as §1, §2, §3, §4, §5, §6, §7

Proteus morganii (C-39) = experiment: as above; assay type: cell-based; conditions: Morganella morganii; HIA medium plate, 37° C., 18 hours; read-out: Minimum growth inhibitory concentration (MIC)
Description: as §1, §2, §3, §4, §5, §6, §7

[4] = tested on: Pseudomonas aeruginosa (NCTC 7244); experiment: MIC in HIB medium by turbidity (Referential Example 2, Table 2); assay type: cell-based; conditions: NCTC7244, 18 h, 37° C.
Description: The compounds obtained in Synthesis Examples 1 to 4 were tested in the following manner.
A suspension of Pseudomonas aeruginosa (NCTC 7244) cultivated at 37° C. for 18 hours in a heart infusion broth medium (HIB medium) in a final amount of 10^5, 10^6 and 10^7 cells/ml in an HIB medium containing each of the test compounds which was obtained in the same way as in Referential Example 1 except that the maximum concentration of the test compound was 200 μg/ml. The bacterial strain was cultivated at 37° C. for 18 hours, and the turbidity of the culture broth was evaluated with the naked eye. The minimum concentration of the test compound at which no turbidity was noted was defined as MIC.

SMILES	LD50 at 336 h [1] [mg/kg]	MIC (Escherichia coli (NIHJ)) [µg/mL]	MIC [2] [µg/mL]	MIC [3] [µg/mL]	MIC (Proteus morganii (C-39)) [µg/mL]	MIC ([4]; 10^5 cells/ml inoculated) [µg/mL]	MIC ([4]; 10^6 cells/ml inoculated) [µg/mL]	MIC ([4]; 10^7 cells/ml inoculated) [µg/mL]
Cc1nnc(SCC2=C(C(=O)O)N3C(=O)C(NC(=O)[C@H](NC(=O)c4cnc5c(c4O)C(=O)CCC5)c4ccc(O)cc4)C3SC2)s1 (single isomer, unassigned) [Synthesis Example 2]	≥ 1000	0.78 (≈ 1.14 µM)	12.5 (≈ 18.3 µM)	12.5 (≈ 18.3 µM)	6.25 (≈ 9.15 µM)	12.5 (≈ 18.3 µM)	12.5 (≈ 18.3 µM)	> 200
CC(=O)OCC1=C(C(=O)O)N2C(=O)C(NC(=O)[C@H](NC(=O)c3cnc4c(c3O)C(=O)CCC4)c3ccc(O)cc3)C2SC1 (single isomer, unassigned) [Synthesis Example 1, 7-[D-(-)-α-(4-hydroxy-5-oxo-5,6,7,8-tetrahydroquinoline-3-carboxamide)-α-(4-hydroxyphenyl)acetamido]-3-acetoxymethyl-Δ^3-cephem-4-carboxylic acid]	≥ 1000	1.56 (≈ 2.55 µM)	25 (≈ 40.9 µM)	25 (≈ 40.9 µM)	12.5 (≈ 20.5 µM)	12.5 (≈ 20.5 µM)	12.5 (≈ 20.5 µM)	25 (≈ 40.9 µM)

From patent US4296112A, “Cephalosporins” (Mitsui Toatsu Chemicals, Inc., priority 1979, dated 1981)
